According to patent US12077503B2, “Substituted cyclic amides and their use as herbicides” (FMC CORPORATION, priority 2015, dated 2024):

What was measured:
Assay type in all cases: in vivo
[1] = test system: giant foxtail (Setaria faberii); assay: Test A postemergence
Method in brief: (§1)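 Compounds were formulated in a non-phytotoxic solvent mixture with surfactant and applied as a preemergence directed soil spray after seeding, or sprayed postemergence over plants 2 to 10 cm tall at the one- to two-leaf stage. Evaluation after about 10 d compared treated with untreated controls, using a scale from 0 (no effect) to 100 (complete control).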

[2] = test system: blackgrass (Alopecurus myosuroides); assay: Test A postemergence
Method in brief: as §1

[3] = test system: ragweed (common ragweed, Ambrosia elatior); assay: Test A postemergence
Method in brief: as §1

[4] = test system: Galium (catchweed bedstraw, Galium aparine); assay: Test A postemergence
Method in brief: as §1

[5] = test system: ryegrass, Italian (Italian ryegrass, Lolium multiflorum); assay: Test A postemergence
Method in brief: as §1

Kochia (Kochia scoparia) [6] = assay: Test A postemergence
Method in brief: as §1

[7] = test system: pigweed (Amaranthus retroflexus); assay: Test A postemergence
Method in brief: as §1

[8] = test system: barnyardgrass (Echinochloa crus-galli); assay: Test A postemergence
Method in brief: as §1

corn (Zea mays) = assay: Test A postemergence
Method in brief: as §1

[9] = test system: wheat (Triticum aestivum); assay: Test A postemergence
Method in brief: as §1

[10] = test system: sedge, umbrella (small-flower umbrella sedge, Cyperus difformis); assay: Test B flooded paddy test; details: Flood, 250 g ai/ha; 0 to 100 scale where 0 is no effect and 100 is complete control; 13 to 15 d
Method in brief: (§2)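 Flooding to 3 cm over soil accompanied treatment, which consisted of adding compound to the standing water around 2-leaf plants; depth was then maintained. Visual assessment versus controls followed at 13 to 15 d (scale 0–100, 0 meaning no effect).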

rice (Oryra sativa) = assay: Test B flooded paddy test; details: Flood, 250 g ai/ha; 0 to 100 scale where 0 is no effect and 100 is complete control; 13 to 15 d
Method in brief: as §2

[11] = test system: barnyardgrass (Echinochloa crus-galli); assay: Test B flooded paddy test; details: Flood, 250 g ai/ha; 0 to 100 scale where 0 is no effect and 100 is complete control; 13 to 15 d
Method in brief: as §2

[12] = test system: ducksalad (Heteranthera limosa); assay: Test B flooded paddy test; details: Flood, 250 g ai/ha; 0 to 100 scale where 0 is no effect and 100 is complete control; 13 to 15 d
Method in brief: as §2

[13] = test system: giant foxtail (Setaria faberii); assay: Test A preemergence; details: Preemergence
Method in brief: as §1

[14] = test system: ragweed (common ragweed, Ambrosia elatior); assay: Test A preemergence; details: Preemergence
Method in brief: as §1

[15] = test system: ryegrass, Italian (Italian ryegrass, Lolium multiflorum); assay: Test A preemergence; details: Preemergence
Method in brief: as §1

Kochia (Kochia scoparia) [16] = assay: Test A preemergence; details: Preemergence
Method in brief: as §1

[17] = test system: pigweed (Amaranthus retroflexus); assay: Test A preemergence; details: Preemergence
[18] = test system: barnyardgrass (Echinochloa crus-galli); assay: Test A preemergence; details: Preemergence
Method in brief: as §1

[19] = 125 g ai/ha, postemergence, visual injury rating on 0 to 100 scale (0 no effect, 100 complete control), approx. 10 d
[20] = Postemergence, 500 g ai/ha, 0 to 100 scale where 0 is no effect and 100 is complete control
[21] = 125 g ai/ha, visual injury after approximately 10 d, 0 to 100 scale where 0 is no effect and 100 is complete control
[22] = 500 g ai/ha, visual injury approx. 10 d

CN1CC(c2cccc(OC(F)F)c2)C(C(=O)Nc2ccccc2S(C)(=O)=O)C1=O (stereo not drawn) [Compound 523]
Foxtail, Giant plant response rating [1, 19]: 80
Plant response rating, Foxtail, Giant [1, 20]: 90
Blackgrass plant response rating [2, 19]: 50
Plant response rating, Blackgrass [2, 20]: 70
Ragweed plant response rating [3, 19]: 50
Plant response rating, Ragweed [3, 20]: 50
Galium plant response rating [4, 19]: 50
Plant response rating, Galium [4, 20]: 60
Ryegrass, Italian plant response rating [5, 19]: 30
Plant response rating, Ryegrass, Italian [5, 20]: 70
Kochia plant response rating (Kochia (Kochia scoparia) [6]; [19]): 20
Plant response rating, Kochia (Kochia (Kochia scoparia) [6]; [20]): 50
Pigweed plant response rating [7, 19]: 30
Plant response rating, Pigweed [7, 20]: 60
Barnyardgrass plant response rating [8, 19]: 90
Plant response rating, Barnyardgrass [8, 20]: 90
Corn plant response rating (corn (Zea mays); [19]): 20
Plant response rating, Corn (corn (Zea mays); [20]): 80
Wheat plant response rating [9, 19]: 0
Plant response rating, Wheat [9, 20]: 70
Plant response rating, Sedge, Umbrella [10]: 0
Plant response rating, Rice (rice (Oryra sativa)): 0
Plant response rating, Barnyardgrass [11]: 50
Plant response rating, Ducksalad [12]: 50
Plant response rating, Foxtail, Giant [13, 21]: 90
Foxtail, Giant plant response rating (0 to 100 scale, 0 is no effect, 100 is complete control) [13, 22]: 90
Plant response rating, Ragweed [14, 21]: 60
Ragweed plant response rating (0 to 100 scale, 0 is no effect, 100 is complete control) [14, 22]: 80
Plant response rating, Ryegrass, Italian [15, 21]: 40
Ryegrass, Italian plant response rating (0 to 100 scale, 0 is no effect, 100 is complete control) [15, 22]: 90
Plant response rating, Kochia (Kochia (Kochia scoparia) [16]; [21]): 0
Kochia plant response rating (0 to 100 scale, 0 is no effect, 100 is complete control) (Kochia (Kochia scoparia) [16]; [22]): 80
Plant response rating, Pigweed [17, 21]: 80
Pigweed plant response rating (0 to 100 scale, 0 is no effect, 100 is complete control) [17, 22]: 90
Plant response rating, Barnyardgrass [18, 21]: 90
Barnyardgrass plant response rating (0 to 100 scale, 0 is no effect, 100 is complete control) [18, 22]: 90
